Results published in patent publication US10100058B2, “Fused heterocyclic compounds as CaM kinase inhibitors” (Gilead Sciences, Inc., priority 2016, dated 2018).

Target: recombinant CaMKIIδ (Homo sapiens (Human), UniProt Q13557)
Assay: CaMKIIδ biochemical assay (HTRF)
Conditions: 10 pM CaMKIIδ, 110 nM calmodulin, 12 μM ATP, 1 hour; read-out: CAMKIID-HTRF-384V2 (IC50 - nM)
Protocol: CaMKIIδ Biochemical Assay
The biochemical activity of recombinant CaMKIIδ was measured by monitoring the phosphorylation of a target peptide using Homogenous Time Resolved Fluorescence (HTRF) technology from CisBio Bioassays.

IC50 | SMILES
7.03 nM | CCN(CC)C(C)CNC(=O)c1ccnc(-c2cnn3ccc(-c4ccccc4)nc23)c1 (stereo not drawn) [Example 37, N-(2-(diethylamino)propyl)-2-(5-phenylpyrazolo[1,5-a]pyrimidin-3-yl)isonicotinamide]
2.08 nM | CCN(CC)[C@@H](C)CNC(=O)c1ccnc(-c2cnn3ccc(-c4ccccc4)nc23)c1 [Example 38, (S)—N-(2-(diethylamino)propyl)-2-(5-phenylpyrazolo[1,5-a]pyrimidin-3-yl)isonicotinamide]
137 nM | CN(C)CCNC(=O)c1ccnc(-c2cnn3ccc(-c4ccccc4)nc23)c1 [Example 39, N-(2-(dimethylamino)ethyl)-2-(5-phenylpyrazolo[1,5-a]pyrimidin-3-yl)isonicotinamide]
119 nM | CC1(C)CNC1CNC(=O)c1ccnc(-c2cnn3ccc(-c4ccccc4)nc23)c1 (stereo not drawn) [Example 41, N-((3,3-dimethylazetidin-2-yl)methyl)-2-(5-phenylpyrazolo[1,5-a]pyrimidin-3-yl)isonicotinamide]
14.4 nM | CCN[C@@H](C)CNC(=O)c1ccnc(-c2cnn3ccc(-c4ccccc4)nc23)c1 [Example 42, (S)—N-(2-(ethylamino)propyl)-2-(5-phenylpyrazolo[1,5-a]pyrimidin-3-yl)isonicotinamide]
27.7 nM | CC[C@]1(CNC(=O)c2ccnc(-c3cnn4ccc(-c5ccccc5)nc34)c2)CCCN1 [Example 43, (R)—N-((2-ethylpyrrolidin-2-yl)methyl)-2-(5-phenylpyrazolo[1,5-a]pyrimidin-3-yl)isonicotinamide]
43.1 nM | C[C@H](N)CNC(=O)c1ccnc(-c2cnn3ccc(-c4ccccc4)nc23)c1 [Example 44, (S)—N-(2-aminopropyl)-2-(5-phenylpyrazolo[1,5-a]pyrimidin-3-yl)isonicotinamide]
77.4 nM | CCC(C)N[C@@H](C)CNC(=O)c1ccnc(-c2cnn3ccc(-c4ccccc4)nc23)c1 (stereo partly drawn) [Example 45, N-((2S)-2-(sec-butylamino)propyl)-2-(5-phenylpyrazolo[1,5-a]pyrimidin-3-yl)isonicotinamide]
23.7 nM | CCC(N)CNC(=O)c1ccnc(-c2cnn3ccc(-c4ccccc4)nc23)c1 (stereo not drawn) [Example 46, N-(2-aminobutyl)-2-(5-phenylpyrazolo[1,5-a]pyrimidin-3-yl)isonicotinamide]
35.3 nM | CC(C)C(N)CNC(=O)c1ccnc(-c2cnn3ccc(-c4ccccc4)nc23)c1 (stereo not drawn) [Example 47, N-(2-amino-3-methylbutyl)-2-(5-phenylpyrazolo[1,5-a]pyrimidin-3-yl)isonicotinamide]
25.7 nM | CCCC(N)CNC(=O)c1ccnc(-c2cnn3ccc(-c4ccccc4)nc23)c1 (stereo not drawn) [Example 48, N-(2-aminopentyl)-2-(5-phenylpyrazolo[1,5-a]pyrimidin-3-yl)isonicotinamide]
391 nM | C[C@@H](CNC(=O)c1ccnc(-c2cnn3ccc(-c4ccccc4)nc23)c1)NCc1ncccn1 [Example 49, (S)-2-(5-phenylpyrazolo[1,5-a]pyrimidin-3-yl)-N-(2-((pyrimidin-2-ylmethyl)amino)propyl) isonicotinamide]
8.52 nM | CCC(CNC(=O)c1ccnc(-c2cnn3ccc(-c4ccccc4)nc23)c1)NCC1CC1 (stereo not drawn) [Example 50, N-(2-((cyclopropylmethyl)amino)butyl)-2-(5-phenylpyrazolo[1,5-a]pyrimidin-3-yl)isonicotinamide]
9.61 nM | CCCNC(CC)CNC(=O)c1ccnc(-c2cnn3ccc(-c4ccccc4)nc23)c1 (stereo not drawn) [Example 51, 2-(5-phenylpyrazolo[1,5-a]pyrimidin-3-yl)-N-(2-(propylamino)butyl)isonicotinamide]
4.98 nM | CC(C)C(CNC(=O)c1ccnc(-c2cnn3ccc(-c4ccccc4)nc23)c1)NCC1CC1 (stereo not drawn) [Example 52, N-(2-((cyclopropylmethyl)amino)-3-methylbutyl)-2-(5-phenylpyrazolo[1,5-a]pyrimidin-3-yl)isonicotinamide]
